Source: PubChem BioAssay (NCI)
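Following 48 hours of exposure in 96-well plates, responses at five concentrations were used to interpolate endpoints linearly. GI50: concentration for 50% inhibition of growth. At the TGI there is no net growth.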

How the values were obtained:
Assay in all cases: NCI-60 cell line screen, 48 h
[1] = test system: 786-0 renal
[2] = test system: A498 renal
[3] = test system: A549 NSCLC
[4] = test system: ACHN renal
[5] = test system: BT-549 breast
[6] = test system: CAKI-1 renal
[7] = test system: CCRF-CEM leukemia
[8] = test system: COLO 205 colon
[9] = test system: DU-145 prostate
[10] = test system: EKVX NSCLC
[11] = test system: HCC-2998 colon
[12] = test system: HCT-116 colon
[13] = test system: HCT-15 colon
[14] = test system: HL-60(TB) leukemia
[15] = test system: HOP-62 NSCLC
[16] = test system: HS 578T breast
[17] = test system: HT29 colon
[18] = test system: IGROV1 ovarian
[19] = test system: K-562 leukemia
[20] = test system: KM12 colon
[21] = test system: LOX IMVI melanoma
[22] = test system: M14 melanoma
[23] = test system: MALME-3M melanoma
[24] = test system: MCF7 breast
[25] = test system: MDA-MB-231 breast
[26] = test system: MDA-N
[27] = test system: MOLT-4 leukemia
[28] = test system: NCI-H226 lung
[29] = test system: NCI-H23 lung
[30] = test system: NCI-H460 lung
[31] = test system: NCI/ADR-RES ovarian
[32] = test system: OVCAR-3 ovarian
[33] = test system: OVCAR-4 ovarian
[34] = test system: OVCAR-5 ovarian
[35] = test system: OVCAR-8 ovarian
[36] = test system: PC-3 prostate
[37] = test system: RPMI-8226 leukemia
[38] = test system: RXF 393 renal
[39] = test system: SF-268 CNS
[40] = test system: SF-295 CNS
[41] = test system: SF-539 CNS
[42] = test system: SK-MEL-28 melanoma
[43] = test system: SK-MEL-5 melanoma
[44] = test system: SK-OV-3 ovarian
[45] = test system: SN12C renal
[46] = test system: SNB-19 CNS
[47] = test system: SNB-75 CNS
[48] = test system: SR leukemia
[49] = test system: SW-620 colon
[50] = test system: T-47D breast
[51] = test system: TK-10 renal
[52] = test system: U251 CNS
[53] = test system: UACC-257 melanoma
[54] = test system: UO-31 renal
[55] = test system: HOP-92 NSCLC
[56] = test system: MDA-MB-435
[57] = test system: NCI-H522 lung
[58] = test system: SK-MEL-2 melanoma
[59] = test system: UACC-62 melanoma

Compound: CC(=O)OC12c3ccccc3C(c3ccccc31)C1C(=O)N(c3ccccc3O)C(=O)C12 (centres undefined)
- TGI [1]: > 100 µM
- TGI [2]: > 100 µM
- TGI [3]: > 100 µM
- TGI [4]: > 100 µM
- TGI [5]: > 100 µM
- TGI [6]: > 100 µM
- TGI [7]: > 100 µM
- TGI [8]: > 100 µM
- TGI [9]: > 100 µM
- TGI [10]: > 100 µM
- TGI [11]: > 100 µM
- TGI [12]: > 100 µM
- TGI [13]: > 100 µM
- TGI [14]: > 100 µM
- TGI [15]: > 100 µM
- TGI [16]: > 100 µM
- TGI [17]: > 100 µM
- TGI [18]: > 100 µM
- TGI [19]: > 100 µM
- TGI [20]: > 100 µM
- TGI [21]: > 100 µM
- TGI [22]: > 100 µM
- TGI [23]: > 100 µM
- TGI [24]: > 100 µM
- TGI [25]: > 100 µM
- TGI [26]: > 100 µM
- TGI [27]: > 100 µM
- TGI [28]: > 100 µM
- TGI [29]: > 100 µM
- TGI [30]: > 100 µM
- TGI [31]: > 100 µM
- TGI [32]: > 100 µM
- TGI [33]: > 100 µM
- TGI [34]: > 100 µM
- TGI [35]: > 100 µM
- TGI [36]: > 100 µM
- TGI [37]: > 100 µM
- TGI [38]: > 100 µM
- TGI [39]: > 100 µM
- TGI [40]: > 100 µM
- TGI [41]: > 100 µM
- TGI [42]: > 100 µM
- TGI [43]: > 100 µM
- TGI [44]: > 100 µM
- TGI [45]: > 100 µM
- TGI [46]: > 100 µM
- TGI [47]: > 100 µM
- TGI [48]: > 100 µM
- TGI [49]: > 100 µM
- TGI [50]: > 100 µM
- TGI [51]: > 100 µM
- TGI [52]: > 100 µM
- TGI [53]: > 100 µM
- TGI [54]: > 100 µM

Compound: CC(C)(Cl)C(Br)CCC(=CCBr)CBr (mixture of isomers)
- TGI [1]: 3.17 µM
- TGI [2]: 18.3 µM
- TGI [3]: 29.9 µM
- TGI [4]: 15.6 µM
- TGI [5]: 7.5 µM
- TGI [7]: 3.49 µM
- TGI [8]: 4.91 µM
- TGI [9]: 21.3 µM
- TGI [10]: 62 µM
- TGI [11]: 14 µM
- TGI [12]: 3.66 µM
- TGI [13]: 3.75 µM
- TGI [14]: 2.42 µM
- TGI [15]: 11.7 µM
- TGI [55]: 5.1 µM
- TGI [16]: 19.3 µM
- TGI [17]: 4.65 µM
- TGI [18]: 5.56 µM
- TGI [19]: 4.18 µM
- TGI [20]: 5.93 µM
- TGI [22]: 4.25 µM
- TGI [23]: 4.74 µM
- TGI [24]: 8.42 µM
- TGI [25]: 3.51 µM
- TGI [56]: 3.56 µM
- TGI [26]: 6.13 µM
- TGI [27]: 2.88 µM
- TGI [28]: 51.9 µM
- TGI [29]: 9.07 µM
- TGI [30]: 13.6 µM
- TGI [57]: 3.19 µM
- TGI [31]: > 24.5 µM
- TGI [32]: 6.27 µM
- TGI [33]: 5.06 µM
- TGI [34]: 26.4 µM
- TGI [35]: 9.25 µM
- TGI [36]: 18 µM
- TGI [37]: 3.22 µM
- TGI [38]: 15.7 µM
- TGI [39]: 4.99 µM
- TGI [40]: 11 µM
- TGI [41]: 4.93 µM
- TGI [58]: 22.9 µM
- TGI [42]: 10.8 µM
- TGI [43]: 7.77 µM
- TGI [44]: 29 µM
- TGI [45]: 8.39 µM
- TGI [46]: 13.1 µM
- TGI [47]: 7.31 µM
- TGI [49]: 5.53 µM
- TGI [50]: 17.3 µM
- TGI [51]: 12.5 µM
- TGI [52]: 4.09 µM
- TGI [53]: 14.2 µM
- TGI [59]: 11.5 µM
- TGI [54]: 3.42 µM

Compound: Cc1cc(C)c2c(=O)cc(-c3ccc(F)cc3)[nH]c2n1
- GI50 [1]: 78.8 µM
- TGI [1]: > 100 µM
- TGI [2]: 99.5 µM
- TGI [3]: > 100 µM
- TGI [4]: > 100 µM
- TGI [5]: > 100 µM
- TGI [6]: > 100 µM
- TGI [7]: > 100 µM
- TGI [8]: > 100 µM
- TGI [9]: > 100 µM
- TGI [10]: > 100 µM
- TGI [11]: > 100 µM
- GI50 [12]: 50 µM
- TGI [12]: > 100 µM
- TGI [13]: > 100 µM
- GI50 [14]: 15.5 µM
- TGI [14]: 37.4 µM
- TGI [15]: > 100 µM
- TGI [55]: 90.3 µM
- TGI [16]: > 100 µM
- TGI [17]: > 100 µM
- TGI [18]: > 100 µM
- TGI [19]: > 100 µM
- TGI [20]: 49.9 µM
- TGI [21]: > 100 µM
- TGI [22]: > 100 µM
- TGI [23]: > 100 µM
- TGI [24]: > 100 µM
- TGI [25]: > 100 µM
- GI50 [56]: 18.6 µM
- TGI [56]: 40.6 µM
- GI50 [26]: 25 µM
- TGI [26]: 67.9 µM
- TGI [27]: > 100 µM
- TGI [28]: > 100 µM
- TGI [29]: > 100 µM
- GI50 [30]: 51.6 µM
- TGI [30]: > 100 µM
- TGI [57]: > 100 µM
- TGI [31]: > 100 µM
- GI50 [32]: 43.5 µM
- TGI [32]: > 100 µM
- TGI [33]: 48.3 µM
- TGI [34]: > 100 µM
- TGI [35]: > 100 µM
- GI50 [36]: 30.1 µM
- TGI [36]: > 100 µM
- TGI [37]: > 100 µM
- TGI [39]: > 100 µM
- GI50 [40]: 50.1 µM
- TGI [40]: > 100 µM
- TGI [41]: > 100 µM
- TGI [58]: > 100 µM
- TGI [42]: > 100 µM
- GI50 [43]: 26.2 µM
- TGI [43]: 75.8 µM
- TGI [44]: > 100 µM
- TGI [45]: > 100 µM
- TGI [46]: > 100 µM
- TGI [47]: > 100 µM
- TGI [48]: 67.7 µM
- TGI [49]: > 100 µM
- TGI [50]: > 100 µM
- TGI [51]: > 100 µM
- GI50 [52]: 95.1 µM
- TGI [52]: > 100 µM
- TGI [53]: > 100 µM
- TGI [59]: > 100 µM
- TGI [54]: 92.4 µM
